tested on: greenhouse red spider mite (Tetranychus urticae); assay: Tetranychus urticae spray test, OP-resistant (TETRUR), bean leaf disks; format: in vivo; conditions: Tetranychus urticae, foliar, 144 h, application rate 100 g/ha, after 6 days; read-out: efficacy (spider mites killed)
Procedure: After 6 days, the effect in % is determined.

| SMILES | pest or weed control at 100 g/ha [%] |
| --- | --- |
| Cc1cc(F)c(/N=C(\N)C2(Cl)CC2)cc1SCC(F)(F)F [Ia-58] | 100 |

same assay, conditions: Tetranychus urticae, foliar, 144 h, application rate 500 g/ha, after 6 days; read-out: efficacy (spider mites killed)

| SMILES | pest or weed control at 500 g/ha [%] |
| --- | --- |
| Cc1cc(Cl)c(/N=C(\N)C(F)(F)C(F)(F)Cl)cc1SCC(F)(F)F [Ia-30] | 100 |
| CN(C)/C(=N/c1cc(SCC(F)(F)F)c(Br)cc1Br)C(F)(F)F [Ia-32] | 100 |
| CN/C(=N/c1cc(SCC(F)(F)F)c(Br)cc1Br)C(F)(F)F [Ia-37] | 100 |
| Cc1cc(F)c(/N=C(\N)c2cccnc2)cc1SCC(F)(F)F [Ia-40] | 100 |
| Cc1cc(F)c(/N=C(\N)c2ccncn2)cc1SCC(F)(F)F [Ia-42] | 100 |
| CN/C(=N/c1cc(SCC(F)(F)F)c(Br)cc1F)C(F)(F)F [Ia-43] | 100 |
| Cc1cc(F)c(/N=C(\N)c2ccc(Cl)nc2)cc1SCC(F)(F)F [Ia-46] | 100 |
| Cc1cc(F)c(/N=C(\N)C(F)(F)C(F)(F)Cl)cc1SCC(F)(F)F [Ia-47] | 100 |
| Cc1cc(Cl)c(/N=C(\N)C(F)F)cc1SCC(F)(F)F [Ia-48] | 100 |
| Cc1cc(Cl)c(SCC(F)(F)F)cc1/N=C(\N)c1ccccn1 [Ia-49] | 100 |
| CCN(CC)/C(=N/c1cc(SCC(F)(F)F)c(C)cc1F)C(F)(F)F [Ia-51] | 100 |
| CN/C(=N/c1cc(SCC(F)(F)F)c(Cl)cc1F)C(F)(F)F [Ia-52] | 100 |
| Cc1cc(Cl)c(SCC(F)(F)F)cc1/N=C(\N(C)C)C(F)(F)F [Ia-53] | 100 |
| Cc1cc(F)c(/N=C(/NC2COC2)C(F)(F)F)cc1SCC(F)(F)F [Ia-54] | 100 |
| Cc1cc(F)c(/N=C2/CCCN2CC(F)F)cc1SCC(F)(F)F [Ia-55] | 100 |
| Cc1cc(Cl)c(/N=C(\N)C(F)(F)F)cc1SCC(F)(F)F [Ia-56] | 100 |
| CN(C)/C(=N\c1cc(SCC(F)(F)F)c(Cl)cc1Cl)C(F)(F)F [Ia-57] | 100 |
| Cc1cc(F)c(/N=C(/c2cccnc2)N(C)C)cc1SCC(F)(F)F [Ia-59] | 90 |
| CN/C(=N\c1cc(SCC(F)(F)F)c(C)cc1F)c1ccc(Cl)cc1 [Ia-60] | 100 |
| CN/C(=N\c1cc(SCC(F)(F)F)c(C)cc1F)c1cccnc1 [Ia-61, N′-{2-Fluoro-4-methyl-5-[(2,2,2-trifluoroethyl)sulfanyl]phenyl}-N-methylpyridine-3-carboximidamide] | 100 |
| CN1CCCC/C1=N\c1cc(SCC(F)(F)F)c(Cl)cc1Cl [Ia-62] | 90 |

| SMILES | pest or weed control at 500 g/ha [%] |
| --- | --- |
| Cc1cc(F)c(/N=C(\N)c2ccccn2)cc1SCC(F)(F)F [Ia-63] | 90 |
| CN/C(=N\c1cc(SCC(F)(F)F)c(C)cc1Cl)c1cccnc1 [Ia-64] | 100 |
| Cc1cc(C)c(SCC(F)(F)F)cc1/N=C(\N)C(F)(F)C(F)(F)Cl [Ia-65] | 100 |
| Cc1cc(F)c(/N=C(\N)C2CC2(F)Cl)cc1SCC(F)(F)F (stereo not drawn) [Ia-67] | 100 |
| CN1CCC/C1=N\c1cc(SCC(F)(F)F)c(Cl)cc1Cl [Ia-68] | 90 |
| CN/C(=N\c1cc(SCC(F)(F)F)c(C)cc1F)c1ccccc1Cl [Ia-69] | 100 |
| Cc1cc(Cl)c(SCC(F)(F)F)cc1/N=C(\N)C(F)(F)C(F)(F)F [Ia-70] | 100 |
| Cc1cc(Cl)c(/N=C(/c2ccc(Cl)cc2)N(C)C)cc1SCC(F)(F)F [Ia-71] | 100 |
| CN/C(=N\c1cc(SCC(F)(F)F)c(C)cc1F)c1ccccn1 [Ia-72] | 100 |
| Cc1cc(F)c(/N=C(\N)c2ccncc2)cc1SCC(F)(F)F [Ia-73] | 100 |
| Cc1cc(Cl)c(SCC(F)(F)F)cc1/N=C(\N)C1(Cl)CC1 [Ia-74] | 100 |
| Cc1cc(F)c(/N=C(\N)C2CC2(Cl)Cl)cc1SCC(F)(F)F (stereo not drawn) [Ia-75] | 100 |
| Cc1cc(Cl)c(SCC(F)(F)F)cc1/N=C(\N)C(F)(F)F [Ia-76] | 100 |
| CN(C)/C(=N/c1ccc(Cl)c(SCC(F)(F)F)c1)C(F)(F)F [Ia-77] | 100 |
| Cc1cc(C)c(SCC(F)(F)F)cc1/N=C(\N)c1ccc(Cl)nc1 [Ia-81] | 100 |
| COC/C(N)=N/c1cc(SCC(F)(F)F)c(C)cc1F [Ia-82] | 100 |
| N/C(=N\c1cccc(SCC(F)(F)F)c1)c1ccccn1 [Ia-83] | 100 |
| Cc1cc(F)c(/N=C(/c2ccccc2Cl)N(C)C)cc1SCC(F)(F)F [Ia-84] | 100 |
| Cc1cc(F)c(/N=C(/NC2(C)CC2)C(F)(F)F)cc1SCC(F)(F)F [Ia-85] | 100 |
| Cc1cc(F)c(/N=C(\N)c2ccc(C(F)(F)F)nc2)cc1SCC(F)(F)F [Ia-86] | 100 |
| CN/C(=N\c1cc(SCC(F)(F)F)c(Cl)cc1C)C(F)(F)F [Ia-87] | 100 |

| SMILES | pest or weed control at 500 g/ha [%] |
| --- | --- |
| Cc1cc(F)c(/N=C2\CCCCN2C)cc1SCC(F)(F)F [Ia-90] | 80 |
| CN/C(=N\c1cc(SCC(F)(F)F)c(C)cc1C)c1cccnc1 [Ia-91] | 90 |
| Cc1cc(F)c(/N=C(/C2CC2)N(C)C)cc1SCC(F)(F)F [Ia-93] | 100 |
| Cc1cc(F)c(/N=C(\N)C2CCC2)cc1SCC(F)(F)F [Ia-94] | 100 |
| Cc1cc(C)c(SCC(F)(F)F)cc1/N=C(\N)c1ccncc1 [Ia-95] | 100 |
| CN/C(=N/c1cc(SCC(F)(F)F)c(F)cc1Cl)C(F)(F)F [Ia-97] | 100 |
| Cc1cc(C)c(SCC(F)(F)F)cc1/N=C(\N)c1ccccn1 [Ia-98] | 100 |
| Cc1cc(F)c(/N=C(\N)C2CCCO2)cc1SCC(F)(F)F (stereo not drawn) [Ia-99] | 100 |
| N/C(=N\c1cccc(SCC(F)(F)F)c1)C1(Cl)CC1 [Ia-100] | 100 |
| N/C(=N\c1cccc(SCC(F)(F)F)c1)c1ccncc1 [Ia-101] | 90 |
| Cc1cc(Cl)c(SCC(F)(F)F)cc1/N=C(\N)C1CC1 [Ia-102] | 90 |
| N/C(=N\c1cccc(SCC(F)(F)F)c1)c1cccnc1 [Ia-104] | 90 |
| Cc1cc(C)c(SCC(F)(F)F)cc1/N=C1\CCCN1C [Ia-105] | 90 |
| Cc1cc(F)c(/N=C(\N(C)C)C2(C(C)C)CC2(Cl)Cl)cc1SCC(F)(F)F (stereo not drawn) [Ia-106] | 90 |
| N/C(=N\c1cccc(SCC(F)(F)F)c1)c1ccc(Cl)nc1 [Ia-107] | 90 |
| Cc1cc(F)c(/N=C(\NC2CC2)C2CC2)cc1SCC(F)(F)F [Ia-108] | 80 |
| CN(C)/C(=N/c1cc(SCC(F)(F)F)c(F)cc1Cl)C(F)(F)F [Ia-109] | 80 |
| Cc1cc(C)c(SCC(F)(F)F)cc1/N=C(\N)C(F)(F)Cl [Ia-122] | 100 |
| N/C(=N\c1cc(SCC(F)(F)F)c(Cl)cc1Cl)C1(Cl)CC1 [Ia-123] | 100 |
| N/C(=N/c1cc(SCC(F)(F)F)c(Cl)cc1Br)C(F)(F)F [Ia-124] | 100 |
| N/C(=N\c1cc(SCC(F)(F)F)c(Cl)cc1Cl)C(F)F [Ia-125] | 100 |

| SMILES | pest or weed control at 500 g/ha [%] |
| --- | --- |
| CN/C(=N/c1cc(SCC(F)(F)F)c(C)cc1F)c1cccc(F)c1 [Ia-126] | 100 |
| Cc1cc(C)c(SCC(F)(F)F)cc1/N=C(\N)C(F)(F)C(F)(F)F [Ia-127] | 100 |
| Cc1cc(F)c(/N=C(\c2ccc(F)cc2)N(C)C)cc1SCC(F)(F)F [Ia-128] | 90 |
| Cc1cc(F)c(/N=C(\c2ccc(C#N)cc2)N(C)C)cc1SCC(F)(F)F [Ia-131] | 100 |
| Cc1cc(F)c(N=C(N)CC#N)cc1SCC(F)(F)F [Ia-132] | 100 |
| Cc1cc(F)c(N=C(N)c2ccccc2F)cc1SCC(F)(F)F [Ia-133] | 100 |
| CN/C(=N\c1cc(SCC(F)(F)F)c(Cl)cc1Cl)c1cccnc1 [Ia-136] | 100 |
| Cc1cc(F)c(/N=c2\sc(C)c(C)n2CC(F)(F)F)cc1SCC(F)(F)F [Ia-138] | 100 |
| N/C(=N\c1cc(SCC(F)(F)F)c(Cl)cc1Cl)C1CC1(Cl)Cl (stereo not drawn) [Ia-140] | 100 |
| N/C(=N\c1cc(SCC(F)(F)F)c(Cl)cc1Cl)c1cccnc1 [Ia-141] | 100 |
| CN/C(=N/c1cc(SCC(F)(F)F)c(C)cc1F)c1ccc(F)cc1 [Ia-144] | 100 |
| Cc1cc(F)c(/N=C(\c2ccccc2F)N(C)C)cc1SCC(F)(F)F [Ia-147] | 100 |
| CN/C(=N\c1cc(SCC(F)(F)F)c(C)cc1F)c1cnc(Cl)c(Cl)c1 [Ia-148] | 100 |
| C=CCN/C(=N\c1cc(SCC(F)(F)F)c(C)cc1F)c1ccc(Cl)nc1 [Ia-150] | 100 |
| CCN/C(=N\c1cc(SCC(F)(F)F)c(C)cc1F)c1cccnc1 [Ia-151] | 100 |
| CN/C(=N\c1cc(SCC(F)(F)F)c(Cl)cc1Cl)c1ccc(Cl)nc1 [Ia-152] | 100 |
| FC(F)(F)CN/C(=N\c1cc(SCC(F)(F)F)c(Cl)cc1Cl)C1CC1 [Ia-153] | 100 |
| NN/C(=N/c1cc(SCC(F)(F)F)c(Cl)cc1F)C(F)(F)F [Ia-155] | 90 |

same assay, conditions: application rate 500 g/ha, after 6 days

| SMILES | efficacy (spider mites killed) [%] |
| --- | --- |
| Cc1cc(F)c(N=C(N)C(F)(F)C(F)(F)C(F)(F)C(F)(F)C(F)(F)C(F)(F)C(F)(F)F)cc1SCC(F)(F)F [Ia-06] | 100 |
| Cc1cc(F)c(N=C(N(Cc2ccccn2)Cc2ccccn2)C(F)(F)F)cc1SCC(F)(F)F [Ia-08] | 100 |
| Cc1cc(F)c(N=C(NS(=O)(=O)C(F)(F)F)C(F)(F)F)cc1SCC(F)(F)F [Ia-16] | 100 |
| CNC(=Nc1cc(SCC(F)(F)F)c(C)cc1Cl)C(F)(F)F [Ia-20] | 100 |
| Cc1ccc(N=C(N)C(F)(F)F)cc1SCC(F)(F)F [Ia-25] | 100 |
